Measurements: publication PMC10933344, “A lncRNA Dleu2-encoded peptide relieves autoimmunity by facilitating Smad3-mediated Treg induction” (EMBO Reports, 2024)
Where no end group is shown, it is not given here.

Columns and labels:
naive CD4+ T cells = assay: In vitro iTreg differentiation (Foxp3+ of CD4+ cells); format: cell-based, mouse; details: 10 μM, 72 h, n = 4
Experimental: C57BL/6 mice were sacrificed, and their spleens and peripheral lymph nodes were removed and gently dissociated into single-cell suspensions. Naive T cells were isolated using the Mouse CD4 Naive T Cell Isolation Kit (BioLegend, Stem Cell, or Thermo Fisher Scientific). Flow cytometry verified that the purity (CD4^+CD25^−CD62L^hi) of the enriched subpopulation was typically higher than 95%. All T cells were cultured using RPMI-1640 medium (Gibco) supplemented with 10% heat-inactivated fetal bovine serum (Gibco), 2 mM L-glutamine (Gibco), 10,000 units/mL of penicillin, 10,000 µg/mL of streptomycin, and 25 µg/mL of Gibco Amphotericin B (Thermo Fisher Scientific), 10 mM HEPES (Gibco), 1 mM Sodium pyruvate, MEM Non-Essential Amino Acids (Life Technologies) and 55 μM β-mercaptoethanol (Gibco). 0.1 million naive CD4^+ T cells were activated with plate-coated anti-CD3 (2.5 μg/ml; BD Biosciences) and soluble anti-CD28 (2 μg/ml; BD Biosciences) antibodies. The Th1 cell differentiation condition included recombinant murine (rm)IL-12 (10 ng/ml, PeproTech) and anti-IL-4 (10 μg/ml, BioLegend). The Th17 cell differentiation condition included rmIL-6 (10 ng/ml, PeproTech), rmTGF-β1 (5 ng/ml, PeproTech), rmIL-23 (10 ng/ml, PeproTech), anti-IL-4 (5 μg/ml, BioLegend) and anti-IFN-γ (10 μg/ml, eBioscience). The inducible T regulatory cell (iTreg) differentiation condition included rmTGF-β (5 ng/ml, PeproTech). 0.1 million naive CD8^+ T cells were activated with plate-coated anti-CD3 (10 μg/ml; BD Biosciences) and plate-coated anti-CD28 (10 μg/ml; BD Biosciences) antibodies. The Tc17 cell differentiation condition included rmIL-6 (10 ng/ml, PeproTech), rmTGF-β1 (2 ng/ml, PeproTech), rmIL-23 (25 ng/ml, PeproTech), rmIL1-β (5 ng/ml, PeproTech), and anti-IFN-γ (10 μg/ml, eBioscience). The Tc1 cell differentiation condition included rmIL-2 (5 ng/ml, PeproTech) and rm IL-12 (1 ng/ml, PeproTech). Different concentrations of Dleu2-17aa and scrPEP (Genscript) were added to the T cell culture from the beginning unless specified. Cells were cultured in U-bottom 96-well plates for 72 h and detected by flow cytometry.
For in vitro mouse T cell differentiation, after 72 h of induction, cells were activated for 4–6 h at 37 °C with the Cell Stimulation Cocktail (Thermo Fisher Scientific) if intracellular cytokine staining is needed, surface markers were stained in FACS buffer (PBS containing 2% FBS) for 30 min at 4 °C protected from light. Cells were then fixed and permeabilized with the Foxp3 Staining Buffer Set (eBioscience) or BD Cytofix/Cytoperm (BD Biosciences) and were stained with fluorescent antibodies. After washing, stained cells were assayed with an LSRFortessa (BD) flow cytometer, and data were analyzed with FlowJo software. Single-cell suspensions from EAE mouse spleen or CNS (day 16 post-immunization) were derived through mechanical separation and passage through a 70-μm filter (Fisherbrand) and analyzed using similar steps. For flow cytometry, antibodies against CD4 (clone GK1.5, 1:200), CD62L (clone MEL-14, 1:200), CD44 (clone IM7, 1:200), CD25 (clone PC61.5, 1:200), IL-17A (clone eBio17B7, 1:200), IFN-γ (clone XMG1.2, 1:200), FoxP3 (clone FJK-16s, 1:200), CD184 (clone 2B11/CXCR4, 1:100), CD152 (clone BNI3 1:100) and CD357 (clone DTA-1 1:100) were from eBioscience, CD3 (clone 145-2C11, 1:200) was from Biolegend and TGFBI (1:100) were from proteintech. For Dleu2-17aa expression detection, C57BL/6 mice were sacrificed, and their spleens were removed and gently dissociated into single-cell suspensions. An Fc blocker was used to reduce potential nonspecific antibody staining caused by IgG. Surface staining was performed using monoclonal antibodies against CD45 (clone 30-F11), CD3 (clone 145-2C11), CD19 (clone SJ25C1), CD11c (clone N418), MHCII (clone M5/114.15.2), F4/80 (clone BM8) all at a dilution of 1:200 (from Biolengend) followed by fixation and permeabilization of the nuclear membrane BD Cytofix/Cytoperm (BD Biosciences). […]

spinal cord of EAE mice = assay: Immunostaining of spinal cord sections of treated EAE mice; format: in vivo, mouse
Text: We then analyzed the T cell subsets in the CNS of WT and KO mice after EAE induction to clarify the inflammatory responses. […] To investigate if Dleu2-17aa affects CNS pathology in EAE, we performed immunostaining of spinal cord sections on EAE mice treated with Dleu2-17aa or scrPEP. […] Neuronal staining was also unaffected by Dleu2-17aa, indicating no significant alterations in CNS inflammation.
DAPI Dleu2-17aa CD4 DAPI Dleu2-17aa Iba1 DAPI Dleu2-17aa GFAP DAPI Dleu2-17aa NeuN
Appendix Fig S7: Effects of Dleu2-17aa on CNS pathology.
Representative immunofluorescence images showing Dleu2-17aa and CD4+ T cells (CD4),
microglia (Iba1), astrocyte (GFAP), and neuron (NeuN) staining in spinal cords of WT and KO EAE […]

CD4+ T cells [1] = assay: Uptake of FAM-labeled peptide, flow cytometry; format: cell-based; details: 6-FAM conjugate, 72 h, mouse CD4+ T cells, n = 3
Experimental: (§1) Figure EV1 Dleu2-17aa enters CD4^+ T cells. (A) Representative histogram of Dleu2-17aa (10 μM) uptake in Jurkat and EL4 cell lines (n = 3). (B) Flow cytometry plots showing FAM-Dleu2-17aa^+ cells gated on CD4^+ T cells after treatment with increasing concentrations of FAM-Dleu2-17aa for 72 h (n = 3). (C) Histograms showing fluorescence intensity of FAM-Dleu2-17aa in CD4^+ T cells after treatment with increasing concentrations of FAM-Dleu2-17aa for 72 h. Gray filled: untreated control (n = 3). (D) Immunofluorescence imaging of FAM-Dleu2-17aa (10 μM) penetration by CD4^+ T cells isolated from WT mouse spleen (n = 3). Scale bars: 20 μm. Data information: n indicates biological replicate.

Jurkat cells = assay: Uptake of FAM-labeled peptide, flow cytometry; format: cell-based, human; details: 6-FAM conjugate, 10 μM, n = 3
Experimental: as §1
(§2) The mouse T cell line EL4 (TIB-39) cells and fibroblast cell line NIH/3T3 (CRL-1658) cells were cultured in high-glucose DMEM (Thermo Fisher Scientific) supplemented with 10% fetal bovine serum (FBS; Gibco). The human T cell line Jurkat (TIB-152) cells were cultured in RPMI 1640 medium (Thermo Fisher Scientific) supplemented with 10% FBS. All lines were maintained at 37 °C in a humidified 5% CO2 atmosphere.

CD4+ T cells [2] = assay: Subcellular distribution by confocal immunofluorescence microscopy; format: cell-based; details: 6-FAM conjugate, 10 μM, 4 h, mouse CD4+ T cells, n = 3
Experimental: as §1
Mouse CD4^+ T cells and EL4 cells were seeded on glass coverslips and incubated with FAM-Dleu2-17aa (10 µM) for 4 h. Cultured cells were washed three times in PBS and fixed with 4% PFA for 10 min at RT, then incubated in Blocking Buffer (1 × PBS/5% BSA/0.3% Triton X-100) for 1 h. After being washed in PBS and air drying, the coverslips were mounted with DAPI (1:1000; Thermo Fisher Scientific). Images were acquired with Leica TCS SP8 laser scanning confocal microscope.

EL4 cells = assay: Uptake of FAM-labeled peptide, flow cytometry; format: cell-based, mouse; details: 6-FAM conjugate, 10 μM, n = 3
Experimental: as §1, §2

| Sequence | significance of CD4+Foxp3+ (%) vs PBS (naive CD4+ T cells; two-tailed Student's t-test) | effect on mouse iTreg cell differentiation (naive CD4+ T cells; vs PBS) | colocalization with astrocytes (spinal cord of EAE mice) | colocalization with microglia (spinal cord of EAE mice) | colocalization with neurons (spinal cord of EAE mice) | presence in CD4+ T cells of spinal cord (spinal cord of EAE mice) | penetration of the peptide (CD4+ T cells [1]; 0-50 μM) | concentration of maximal penetration (CD4+ T cells [1]) | penetrating ability (Jurkat cells) | subcellular distribution (CD4+ T cells [2]) | penetrating ability (EL4 cells) |
| --- | --- | --- | --- | --- | --- | --- | --- | --- | --- | --- | --- |
| MGRGALRRGRGRARRRGPRRGGTPG [DLEU2-25aa, 25 amino acid micropeptide of human DLEU2 transcripts] | ✱✱ (**P<0.01) | exhibited similar features in promoting mouse iTreg cell differentiation | – | – | – | – | – | – | – | – | – |
| MLGRRARRRGRGRRRPA [Dleu2-17aa] | – | – | limited colocalization | some colocalization | minimal colocalization | expressed in all the CD4^+ T cell | dose-dependent penetration | 25 to 50 µM | capacity to penetrate into different types of T cells | predominantly localized in the nucleus | capacity to penetrate into different types of T cells |
